Source: patent US6172112A, “Retinoids and use thereof” (priority 1999, dated 2001)
Entries after “also recorded” stand apart in the source; their conditions may differ. Read-outs that look alike come from different tables or passages of the source. Values belong to the compound of their own block, whether it stands above or below them.

Experiments:
RARα/RXRα = target: T1, RARα/RXRα (Homo sapiens, UniProt P10276+P19793); assay: cell-based
T1 sequence (P10276 1-462): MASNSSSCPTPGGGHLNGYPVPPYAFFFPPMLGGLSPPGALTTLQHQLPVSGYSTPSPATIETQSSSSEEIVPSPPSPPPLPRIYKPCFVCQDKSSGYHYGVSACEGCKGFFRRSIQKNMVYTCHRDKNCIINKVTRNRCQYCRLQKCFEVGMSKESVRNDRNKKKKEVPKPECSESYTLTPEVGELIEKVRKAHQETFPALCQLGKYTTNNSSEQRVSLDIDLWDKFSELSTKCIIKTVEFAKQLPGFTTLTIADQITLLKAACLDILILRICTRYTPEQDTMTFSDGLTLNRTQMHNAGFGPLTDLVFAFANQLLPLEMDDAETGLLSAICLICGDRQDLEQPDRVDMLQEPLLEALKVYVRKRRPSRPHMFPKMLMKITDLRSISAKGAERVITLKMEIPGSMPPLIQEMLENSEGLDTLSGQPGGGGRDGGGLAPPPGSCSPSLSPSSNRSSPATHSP
T1 sequence (P19793 1-462): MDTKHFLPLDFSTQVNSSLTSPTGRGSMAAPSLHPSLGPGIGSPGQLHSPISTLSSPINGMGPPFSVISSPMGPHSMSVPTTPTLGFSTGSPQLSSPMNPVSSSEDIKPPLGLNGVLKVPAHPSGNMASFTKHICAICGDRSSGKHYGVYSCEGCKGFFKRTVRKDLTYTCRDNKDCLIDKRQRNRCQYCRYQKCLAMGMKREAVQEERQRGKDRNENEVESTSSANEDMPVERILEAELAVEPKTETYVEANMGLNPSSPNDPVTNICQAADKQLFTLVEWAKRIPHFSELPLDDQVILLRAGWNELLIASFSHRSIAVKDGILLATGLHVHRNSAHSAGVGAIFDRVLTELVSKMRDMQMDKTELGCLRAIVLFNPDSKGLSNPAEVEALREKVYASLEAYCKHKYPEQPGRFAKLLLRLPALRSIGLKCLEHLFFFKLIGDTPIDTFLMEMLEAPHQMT
Protocol: (§1) These assays were performed in CV-1 cells with the RAR or RXR gene and the chloramphenicol acetyltransferase (CAT) reporter gene containing TREpal with a thymidine kinase promoter [(TREpal)2 -tk-CAT]. Twenty-four hours after transfection, cells were treated with a single dose of retinoid and the cell extracts were assayed for b-galactosidase and CAT activity. The antagonistic effects of UAB30 retinoids on the transcription of RAR-α were also determined in CV-1 cells. The methods are nearly identical to those used to perform transcriptional assays. These studies utilized the CAT reporter gene [(TREpal)2 -tk-CAT]. […] After 24 hours, cells were harvested and the transcriptional effects were measured in relative CAT activity, after correction with β-galactosidase activity for transfection efficiency. […] Experiments were performed in triplicate and the data were averaged.

RARα [1] = target: T2, RARα (Homo sapiens, UniProt P10276); conditions: taken from Alam et al (9); cited from earlier work
T2 sequence (P10276 1-462): T1 sequence (P10276 1-462)

RXRα [2] = target: T3, RXRα (Homo sapiens, UniProt P19793); assay: RXRα homodimer-mediated transcriptional activation in CV-1 cells; type: cell-based
Protocol: as §1

JMML cells = assay: inhibition of JMML spontaneous CFU-GM colony formation; conditions: Homo sapiens
Protocol: Mononuclear cells were separated by density gradient centrifugation, washed, and frozen in aliquots. […] No growth factors or other exogenous stimuli were added to the cultures. UAB retinoids and retinoic acid isomers were dissolved in either 100% ethanol or DMSO. Appropriate dilutions were made, and controls using the respective ethanol or DMSO concentration were set up in parallel. Varying doses of retinoids were added only once, 24 hours after initiation of the soft agar assays, by pipetting the retinoid solution on top of the soft agar and allowing the solution to enter the agar and interact with the cells by diffusion. The cultures were incubated for 14 days at 37° C. in a humidified atmosphere with 5% CO2.

HL-60 cells = assay: retinoid induction of differentiation of HL-60 cells (NBT); type: cell-based; conditions: Homo sapiens, HL-60, 96 h; 4-day induction of differentiation; read-out: ED50 (nM) HL-60
Protocol: (§2) Human leukemia cell line HL-60 and NB4 were used for measuring the ability of retinoids to induce terminal differentiation. Both cell lines are predominantly promyelocytes and are induced by retinoic acid to mature to cells with many characteristics of mature granulocytes. The induction of this differentiation is the basis for assaying one of the biological activities of retinoic acid analogues. For the differentiation assay, HL-60 or NB4 cells were grown in nutrient medium with fetal bovine serum as detailed by Breitman (15).
(§3) The percentage of cells that gained this marker was measured microscopically. The percentage of positive cells was then plotted as a function of the retinoid concentration to determine ED50 and ED30 values used in the formation of isoboles.

RXRα [3] = target: T3, RXRα; conditions: taken from Alam et al (9); cited from earlier work
RARβ [4] = target: T4, RARβ (Homo sapiens, UniProt P10826); conditions: taken from Alam et al (9); cited from earlier work
T4 construct: expressed in transfected cells; host or cells: CV-1 cells
T4 sequence (P10826 1-455): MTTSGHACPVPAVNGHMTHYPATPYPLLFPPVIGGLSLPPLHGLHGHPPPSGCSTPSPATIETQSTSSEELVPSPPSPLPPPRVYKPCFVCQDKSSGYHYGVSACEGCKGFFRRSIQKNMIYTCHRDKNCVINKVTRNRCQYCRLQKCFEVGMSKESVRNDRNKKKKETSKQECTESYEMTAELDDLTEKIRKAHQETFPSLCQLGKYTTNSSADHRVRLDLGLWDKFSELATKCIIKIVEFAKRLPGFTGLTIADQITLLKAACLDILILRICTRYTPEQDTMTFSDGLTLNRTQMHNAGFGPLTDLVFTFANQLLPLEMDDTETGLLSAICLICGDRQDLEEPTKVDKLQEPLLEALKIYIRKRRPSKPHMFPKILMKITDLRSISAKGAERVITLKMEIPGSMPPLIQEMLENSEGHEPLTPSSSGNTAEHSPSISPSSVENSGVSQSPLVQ

RARγ [5] = target: T5, RARγ (Homo sapiens, UniProt P13631); conditions: taken from Alam et al (9); cited from earlier work
T5 sequence (P13631 1-454): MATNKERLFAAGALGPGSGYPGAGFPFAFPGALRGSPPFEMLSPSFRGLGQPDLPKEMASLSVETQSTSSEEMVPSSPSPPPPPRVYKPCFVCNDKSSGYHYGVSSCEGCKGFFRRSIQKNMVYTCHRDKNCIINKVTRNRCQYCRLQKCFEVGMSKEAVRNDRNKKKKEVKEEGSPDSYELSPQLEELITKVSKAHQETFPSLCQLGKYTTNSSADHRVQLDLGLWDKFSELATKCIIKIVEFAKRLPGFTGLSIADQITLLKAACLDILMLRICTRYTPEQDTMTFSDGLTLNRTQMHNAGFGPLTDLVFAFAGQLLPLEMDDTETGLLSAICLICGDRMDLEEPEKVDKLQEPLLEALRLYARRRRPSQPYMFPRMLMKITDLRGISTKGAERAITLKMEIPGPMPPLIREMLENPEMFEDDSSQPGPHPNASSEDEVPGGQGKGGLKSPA

RARγ [6] = target: T5, RARγ; assay: RARγ-mediated transcriptional activation in CV-1 cells; type: cell-based
Protocol: as §1
(§4) UAB30 isomers were evaluated in assays which measures their functional activity within cells to induce RARα-, RARβ-, and RARγ-mediated transcriptional activity. CV-1 cells were transiently transfected with DNA plasmid from the appropriate RAR subtype and (TREpal)2 -tk-CAT (9, 19).

RARα [7] = target: T2, RARα; assay: cell-based
Protocol: as §1, §4

NB4 cells = assay: retinoid induction of differentiation of NB4 cells (NBT); type: cell-based, Human; conditions: for EC50: NB-4, 96 h, read-out: ED50 (nM) NB4
Protocol: NB4 cells were obtained from Dr. Waxman after he received them from Dr. M. Lanotte. […] The cell were grown at 37° C. in a humidified atmosphere of 5% CO2 in air. Cell density was estimated on an electronic particle counter (Coulter electronic, Hialeah, Fla.) and cell viability with trypan bleu dye exclusion.
as §2, §3

mouse skin papilloma [8] = assay: mouse skin antipapilloma assay; conditions: 45.9 nmol dose
Protocol: The mouse skin antipapilloma assay measured the ED50 values for retinoid tumor inhibition on the dorsal skin of mice. The inhibition of mouse skin papilloma by retinoids was performed according to a modification of the procedure developed by Verma and Boutwell (14) as reported previously by Muccio et al. (8).
The UAB30 retinoids were evaluated next for their activity in preventing the chemical induction of papillomas on mouse skin (14).

RARs = assay: binding to RARs (subtypes stated together in text)
Protocol: (§5) For active retinoids, IC50 values were determined by titration with varying concentrations of UAB retinoids.

[9] = tested on: juvenile myelomonocytic leukemia (JMML); conditions: children with JMML; cited from earlier work
RARβ [10] = target: T4, RARβ; assay: nuclear receptor radiolabeled competition binding, RARβ
Protocol: as §5

RARβ [11] = target: T4, RARβ; assay: RARβ-mediated transcriptional activation in CV-1 cells; type: cell-based
Protocol: as §1, §4

RARα [12] = target: T2, RARα; assay: nuclear receptor radiolabeled competition binding, RARα
Protocol: as §5

RARγ [13] = target: T5, RARγ; assay: nuclear receptor radiolabeled competition binding, RARγ
Protocol: as §5

mouse skin papilloma [14] = conditions: 45.9 nmol dose; ref (8); cited from earlier work
[15] = read-out: normalized percent inhibition of CFU-GM colony growth, patient J84 (%)
[16] = read-out: normalized percent inhibition of CFU-GM colony growth, patient J83 (%)
[17] = read-out: normalized percent inhibition of CFU-GM colony growth, patient J83 (%), 10^-6 M
[18] = read-out: normalized percent inhibition of CFU-GM colony growth, patient J83 (%), 10^-7 M
[19] = read-out: normalized percent inhibition of CFU-GM colony growth, patient J84 (%), 10^-6 M

Compound: CCC1=C(C(C)C)/C(=C/C(C)=C/C=C/C(C)=C\C(=O)O)CCC1 [(13Z)-UAB8]
EC50 (RARα/RXRα): 450 nM
IC50 (RARα [1]): 900 nM
EC50 (RXRα [2]): > 2000 nM
inhibition at 1 µM (JMML cells; read-out: normalized percent inhibition of CFU-GM colony growth, patient J43 (%)): 80%
inhibition at 0.01 µM (JMML cells; [15]): 0%
inhibition at 0.1 µM (JMML cells; [15]): 18%
EC50 (HL-60 cells): > 10000 nM
IC50 (RXRα [3]): > 1000 nM
IC50 (RARβ [4]): 371 nM
IC50 (RARγ [5]): 708 nM
EC50 (RARγ [6]): 42 nM
EC50 (RARα [7]): 51 nM

EC50 (HL-60 cells): > 10000 nM
EC50 (NB4 cells; Homo sapiens, 4-day induction of differentiation): > 10000 nM
Compound: CCC1=C(C(C)C)/C(=C/C(C)=C\C=C\C(C)=C/C(=O)O)CCC1 [(9Z, 13Z)-UAB8]

Compound: CC(=C\C=C\C(C)=C\C(=O)O)/C=C1\CCCc2ccccc21 [(all-E)-UAB30, (2E,4E,6E,8E)-8-(3',4'-Dihydro-1'(2'H)-naphthalen-1'-ylidene)3,7-dimethyl-2,4,6-octatrienoic acid]
prevention of papilloma (tumor) formation (mouse skin papilloma [8]): 59%
inhibition at 0.1 µM (JMML cells; [16]): 68%
inhibition at 1 µM (JMML cells; [16]): 72%
inhibition at 0.01 µM (JMML cells; [15]): 28%
inhibition at 0.1 µM (JMML cells; [15]): 48%
inhibition at 1 µM (JMML cells; [15]): 57%
EC50 (HL-60 cells): > 10000 nM
EC50 (NB4 cells; Homo sapiens): > 10000 nM
dose up to which not active in NB4 cell differentiation (NB4 cells; retinoid alone, 3 days): > 40 mM
NB4 cell differentiation (NB4 cells; retinoid alone, listed as all-trans-UAB30): inactive in NB4 cell differentiation; also recorded: not induce differentiation of NB4 cells

Compound: CC(=C/C(=O)O)/C=C/C=C(C)/C=C1\CCCc2ccccc21 [(13Z)-UAB30, (2E,4E,6E,8E)-8-(3',4'-Dihydro-1'(2'H)-naphthalen-1'-ylidene)3,7-dimethyl-2,4,6-octatrienoic acid]
inhibition at 0.1 µM (JMML cells; [16]): 82%
inhibition at 1 µM (JMML cells; [16]): 88%
inhibition at 0.01 µM (JMML cells; [15]): 25%
inhibition at 0.1 µM (JMML cells; [15]): 72%
inhibition at 1 µM (JMML cells; [15]): 80%
EC50 (HL-60 cells): > 10000 nM
EC50 (NB4 cells; Homo sapiens): > 10000 nM
binding to the RAR subtypes (RARs): ineffective binder

Compound: CC1=C(/C=C/C(C)=C/C=C/C(C)=C\C(=O)O)C(C)(C)CCC1 [(13Z)-RA, reference compound]
inhibition at 1 µM (JMML cells; read-out: normalized percent inhibition of CFU-GM colony growth, patient J43 (%), 10^-6 M): 109%
inhibition at 1 µM (JMML cells; [17]): 94%
inhibition at 0.1 µM (JMML cells; [18]): 86%
inhibition at 1 µM (JMML cells; [19]): 87%
share of children in whom excessive myeloproliferation is controlled [9]: up to 50%

Compound: CCC1=C(C(C)C)/C(=C/C(C)=C\C=C\C(C)=C\C(=O)O)CCC1 [(9Z)-UAB8]
EC50 (RARα/RXRα): > 2000 nM
prevention of papilloma (tumor) formation (mouse skin papilloma [8]): 54%
IC50 (RARβ [10]): > 1000 nM
EC50 (RARβ [11]): > 2000 nM
EC30 (NB4 cells; Homo sapiens, NB-4, 72 h, retinoid alone, 3 days, read-out: ED30 NB4 cell differentiation): > 3000 µM
IC50 (RARα [12]): > 1000 nM
EC50 (RARγ [6]): 190 nM
EC50 (RARα [7]): > 1000 nM
IC50 (RARγ [13]): > 1000 nM

Compound: CC1=C(/C=C/C(C)=C\C=C\C(C)=C\C(=O)O)C(C)(C)CCC1 [(9Z)-RA, 9-cis-retinoic acid, reference compound]
prevention of papilloma (tumor) formation (mouse skin papilloma [14]): 95%
inhibition at 0.1 µM (JMML cells; read-out: normalized percent inhibition of CFU-GM colony growth, patient J43 (%), 10^-7 M): 98%
inhibition at 1 µM (JMML cells; [17]): 82%
inhibition at 0.1 µM (JMML cells; [18]): 72%
inhibition at 1 µM (JMML cells; [19]): 95%
NB4 cell differentiation (NB4 cells; retinoid alone): comparable to that of ATRA
